{
  "source": "patent US9585879B2",
  "about": "“Heterocyclic GSK-3 allosteric modulators” (Consejo Superior de Investigaciones Cientificas (CSIC), priority 2011, dated 2017)",
  "key": {"GSK-3β [1]": {"test_system": "GSK-3β", "test": "Study of the inhibition of GSK-3β as a function of enzyme-inhibitor pre-incubation time", "format": "biochemical, human", "description": "In order to determine the binding mode of these compounds, different kinetic studies were performed, varying the reaction times and the ATP concentration and the substrate concentration."}, "GSK-3β [2]": {"test_system": "GSK-3β", "format": "biochemical, human", "description": "The ATP concentrations were varied from 1 to 50 µM, whereas the concentration of the GS-2 peptide was kept constant at 12.5 µM. The concentrations of inhibitor (compound 6) used are shown in the plot.\nThe kinetic studies conducted by varying the ATP concentration from 1 to 50µM, and the concentration of inhibitor 6 from 5 to 10µM, were performed using the ADP-Glo™ Kinase Assay."}, "GSK-3β [3]": {"test_system": "GSK-3β", "format": "biochemical, human", "description": "The GS-2 concentrations were varied from 15.5 to 100 µM, whereas the ATP concentration was kept constant at 1 µM. The concentrations of inhibitor (compound 6) used are shown in the plot.\nOn the other hand, we also studied the dependence of GSK-3β activity in the presence of these inhibitors as a function of the concentration of the substrate, the GS-2 peptide, used in the assays.", "remark": "listed apart in the source"}, "[4]": {"target": "recombinant human GSK3 enzyme (GSK-3β)", "format": "biochemical", "details": "Kinase-Glo, 1 μM ATP, 25 μM substrate, 30 min at 30 °C", "description": "Measurement of the Inhibition of GSK-3β\nThe enzyme inhibition assays were performed using the luminometric methodology of kinase-Glo®. The recombinant human GSK3 enzyme (catalogue no. 14-306) was acquired from Upstate (Dundee, UK). The prephosphorylated polypeptide was synthesised by American Peptide Inc. (Sunnyvale, Calif.). The luminescent kinase kit (catalogue no. V6711) was obtained from Promega. The ATP and the other reagents were purchased from Sigma-Aldrich (St. Louis, Mo.).\nThe assays were performed in buffer using 96-well plates. 10µl of the compound to be assayed (dissolved in DMSO at a concentration of 1 mM, and, in turn, dissolved in buffer to the concentration necessary for the experiment) and 10µl (20 ng) of the enzyme are added to each well, followed by 20µl of buffer containing 25µM of the substrate and 1µM of ATP. […] Following a half-hour incubation at 30° C., the enzymatic reaction is stopped with 40µl of the kinase-Glo® reagent. The luminescence is measured after ten minutes, using a POLARstar Optima multimode reader. The activity is proportional to the difference between the total ATP and the ATP consumed. The inhibitory activities were calculated as a function of the maximum activity, measured in the absence of inhibitor."}, "[5]": {"details": "GS-2 15.5 to 100 μM, ATP 1 μM, inhibitor 5 to 10 μM"}},
  "note": "Read-outs that look alike come from different tables or passages of the source.",
  "data": [
    {"smiles": "CCCCCCCCCCCC(=O)NNC(=O)c1c(O)c2ccccc2n(CC)c1=O", "note": "[Compound 6, N′-Dodecanoyl-1-ethyl-4-hydroxy-2-oxo-1,2-dihydroquinoline-3-carbohydrazide]", "values": [
      {"measurement": "% inhibition of GSK-3β", "setting": "GSK-3β [1]; [Comp. 6] 5 μM, pre-incubation time E + I 0 min", "value": 27.42, "unit": "%"},
      {"measurement": "% inhibition of GSK-3β", "setting": "GSK-3β [1]; [Comp. 6] 5 μM, pre-incubation time E + I 5 min", "value": 30.31, "unit": "%"},
      {"measurement": "% inhibition of GSK-3β", "setting": "GSK-3β [1]; [Comp. 6] 5 μM, pre-incubation time E + I 10 min", "value": 30.18, "unit": "%"},
      {"measurement": "% inhibition of GSK-3β", "setting": "GSK-3β [1]; [Comp. 6] 10 μM, pre-incubation time E + I 0 min", "value": 61.4, "unit": "%"},
      {"measurement": "% inhibition of GSK-3β", "setting": "GSK-3β [1]; [Comp. 6] 10 μM, pre-incubation time E + I 5 min", "value": 63.04, "unit": "%"},
      {"measurement": "% inhibition of GSK-3β", "setting": "GSK-3β [1]; [Comp. 6] 10 μM, pre-incubation time E + I 10 min", "value": 62.26, "unit": "%"},
      {"measurement": "reversibility of GSK-3β inhibition", "setting": "GSK-3β [1]; different enzyme incubation times, two inhibitor concentrations", "value": "reversible inhibitor"},
      {"measurement": "Michaelis-Menten constant (Km) in the presence of the inhibitor", "setting": "GSK-3β [2]", "value": "remains invariable"},
      {"measurement": "mode of inhibition with respect to ATP", "setting": "GSK-3β [2]; ATP 1 to 50 μM, GS-2 12.5 μM, inhibitor 5 to 10 μM", "value": "non-ATP-competitive inhibitor"},
      {"measurement": "maximum enzyme activity (Vmax) in the presence of the inhibitor", "setting": "GSK-3β [2]; ATP 1 to 50 μM, inhibitor 5 to 10 μM", "value": "decreases"},
      {"measurement": "Michaelis-Menten constant (Km) in the presence of the inhibitor", "setting": "GSK-3β [3]", "value": "remains invariable"},
      {"measurement": "maximum enzyme activity (Vmax) in the presence of the inhibitor", "setting": "GSK-3β [3]; [5]", "value": "decreases"},
      {"measurement": "mode of inhibition with respect to substrate GS-2", "setting": "GSK-3β [3]; [5]", "value": "substrate-non-competitive inhibitor"}
    ]},
    {"smiles": "CCCCCCCCCCCC(=O)N(Cc1ccccc1)NC(=O)c1c(O)c2ccccc2n(Cc2ccccc2)c1=O", "note": "[Compound 63, N′,1-Dibenzyl-N′-dodecanoyl-4-hydroxy-2-oxo-1,2-dihydroquinoline-3-carbohydrazide]", "values": [
      {"measurement": "IC50", "setting": "[4]", "value": "6.84 ± 0.51", "unit": "µM"}
    ]},
    {"smiles": "CCCCCCCCCCCC(=O)NNC(=O)c1c(O)c2ccccc2n(C)c1=O", "note": "[Compound 4, N′-Dodecanoyl-4-hydroxy-1-methyl-2-oxo-1,2-dihydroquinoline-3-carbohydrazide]", "values": [
      {"measurement": "IC50", "setting": "[4]", "value": "7.35 ± 0.23", "unit": "µM"}
    ]}
  ]
}
